Assay results: US20090028795A1, “NOD1 as an Anti-Tumor Agent” (priority 2005, published 2009)
Non-standard residues stand in square brackets, D forms with d. No end group written: not given here. DAP = diaminopimelic acid

Legend:
Type in all cases: cell-based, human
CaCo2 = assay: IL-8 production, CaCo2 cells stably expressing Nod1; settings: CaCo2, Nod1 stably expressed; treatment as labelled
MCF-7 C20/Nod1 cells = assay: Propidium iodide exclusion apoptosis assay, estrogen/tamoxifen studies; settings: γTriDAP-induced, C20/Nod1 cells
Source text: FIG. 12A-C illustrates that estrogen increases γTriDAP-induced apoptosis and tamoxifen inhibits γTriDAP-induced apoptosis in various MCF-7 tumor cell lines. FIG. 12A graphically illustrates the percent apoptosis in MCF-7 Blasto, MCF-7 C20 and MCF-7 C20/Nod1 cells cultured in increasing amounts or estrogen and either cycloheximide (CHX) or CHX plus γTriDAP (γTri). FIG. 12B graphically illustrates the percent apoptosis in MCF-7 Blasto, MCF-7 C20 and MCF-7 C20/Nod1 cells cultured in increasing amounts of tamoxifen and either cycloheximide (CHX) or CHX plus γTriDAP (γTri). For the estrogen studies, MCF-7 cells were cultured in charcoal-treated medium and stimulated with γTriDAP/CHX in the presence of increasing concentrations of estrogen (E2) and cell viability was measured by propidium iodide (PI) exclusion. For the tamoxifen studies, cells were treated with tamoxifen prior to addition of γTriDAP/CHX and cell viability measured by PI exclusion. […] Total protein extracts from MCF-7 Blasto, MCF-7 C20 and MCF-7 C20/Nod1 cells and from cells isolated from tumors were analyzed by immunoblotting using antibody against estrogen receptor (ERα), and ERK2 as loading control.
(§1) Cell viability assays. Propidium iodide exclusion assay: Cells were stimulated as indicated for 2 days. Subsequently, cells were harvested, washed twice in FACS buffer (PBS containing 1% FCS and 0.1% NaN3) and resuspended in propidium iodide (PI)-containing FACS buffer (4 ug/ml). The extent of cell death was analyzed with a FACSCalibur flow cytometer (Becton Dickinson, Mountain View, Calif.). DAPI staining: MCF-7 cells were plated in chamber slides, and stimulated for 2 days. Cells were washed with PBS and apoptotic nuclei were stained with 1 μg/ml DAPI (Sigma Chemical Co., St. Louis, Mo.). Cells were fixed in 4% paraformaldehyde and examined by fluorescence microscopy.
To determine whether the presence of estrogens modulates Nod1-induced apoptotic pathway, cells were cultured in medium containing charcoal-treated serum.

MCF-7 Nod2 cells = assay: Apoptosis (PI, flow cytometry) in MCF-7 cells over-expressing Nod2; settings: 20 ug/ml plus CHX, 48 h
Protocol: In FIG. 5A, MCF-7 Blasto, MCF-7 Nod1 and MCF-7 Nod2 were treated with the NOD1 ligand γTriDAP or the Nod2 ligand muramyl dipeptide (MDP)(20 ug/ml each) in the presence or absence of CHX for 48 h. Cells were then incubated with PI and apoptotic cell death was measured by flow cytometry. […] In FIG. 5B, expression of NOD1 and NOD2 was confirmed by Western blot analysis using anti-Myc antibodies for detection of the recombinant proteins. […] MCF-7 Blasto, MCF-7 Nod1 and MCF-7 Nod2 cells were stimulated with γTriDAP or MDP in the presence or absence of CHX (0.5 ug/ml) for 24 h. Cell supernatants were then harvested and assayed for IL-8 secretion.
Cell viability assays. Propidium iodide exclusion assay: Cells were stimulated as indicated for 2 days. […] The extent of cell death was analyzed with a FACSCalibur flow cytometer (Becton Dickinson, Mountain View, Calif.). […] Cells were fixed in 4% paraformaldehyde and examined by fluorescence microscopy.
Experiments were also performed to ascertain whether activation of Nod2 by its specific activator, muramyl dipeptide (MDP), would initiate apoptosis in parental MCF-7 cells or in MCF-7 cells over-expressing Nod2 (MCF-7 Nod2). Thus, γTriDAP or MDP were added to each of these lines and apoptosis (FIG. 5A) and IL-8 production (FIG. 5C) were measured. […]

MCF-7 Nod1 cells = assay: Propidium iodide exclusion cell death assay, MCF-7 cells over-expressing Nod1; settings: MCF-7Nod1 cells, cycloheximide and γTriDAP, 48 h treatment
Protocol: as §1
(§2) To further investigate the role of Nod1 in apoptosis, a variety of cell types were incubated with the Nod1 ligand, […] (γTriDAP), which specifically activates Nod1. The cell types tested included the parental MCF-7 cell line, the Nod1-deficient MCF-7C20 clone, and a cell line engineered to contain an additional human Nod1 allele (MCF-7Nod1) so that Nod1 was over-expressed. To determine whether the resistance of C20 cells to γTriDAP-induced apoptosis resulted from the absence of Nod1, human Nod1 was stably expressed in MCF-7 C20 cells to produce Nod1-sufficient C20 cells (C20/Nod1). As another control, the parental MCF-7 cell line was transfected with an empty retroviral vector to generate MCF-7 Blasto cells. Cells were treated with γTriDAP in the presence or absence of cycloheximide (CHX) and cell death was then determined by propidium iodide staining and flow cytometry.

HT29 = assay: IL-8 production, HT29 cells stably expressing Nod1; settings: HT29, Nod1 stably expressed; treatment as labelled
MCF-7 cells = assay: Propidium iodide exclusion cell death assay, wild-type (parental/Blasto) MCF-7 cells; settings: for cell death / apoptosis: wild type cells, agent alone
Protocol: as §1, §2

[1] = tested on: MCF-7 C20 cells with Nod2; assay: Apoptosis in MCF-7 C20 cells complemented with Nod2; settings: MCF-7 C20 complemented with Nod2 (data not shown)

With “D-Ala-L-Glu-Diaminopimelic acid ([dA]-Glu-[DAP]; also: Glu joined to DAP through its gamma carboxyl (γTriDAP))” the “IL−8 Production” value (CaCo2) was “poorly responsive”, the apoptosis (MCF-7 C20/Nod1 cells; with steroids) was 80% and the apoptosis (MCF-7 C20/Nod1 cells; without steroids (charcoal-treated serum)) was 10%. The apoptosis (MCF-7 Nod2 cells) was “produced cell death”, the cell death (MCF-7 Nod1 cells) was ~60% and the “IL−8 Production” value (HT29) was “poorly responsive”. For the same substance, the “cell death / apoptosis” value (MCF-7 cells) was “No cell death”, the “cell death / apoptosis” value (MCF-7 cells; listed as 7-TriDAP) was “did not induce apoptosis” and the cell death (MCF-7 cells; wild-type MCF-7, γTriDAP 50 ug/ml in the presence of cycloheximide 3 ug/ml, 48 h) was “about 25%”. For the same substance, the apoptosis [1] was “did not result in apoptosis”.
